ChEMBL document CHEMBL5500372, “Novel natural osthole-inspired amphiphiles as membrane targeting antibacterials against methicillin-resistant Staphylococcus aureus (MRSA)” (Eur J Med Chem, 2024)
The source made the active and inactive calls. The calls are words filed in the database; no cut-off is given here.

Experiments:
Cell membrane [1] = assay: Disruption of cell membrane in methicillin-resistant Staphylococcus aureus clinical isolate 16 assessed as appearance of uneven surface at 16 ug/ml measured after 4 hrs by SEM analysis; type: cell membranes; settings: dose 16.0 µg/ml
Cell membrane [2] = assay: Induction of cell membrane disruption in methicillin-resistant Staphylococcus aureus clinical isolate 16 assessed as intact cells (Q3 region) at 4 ug/ml measured after 2 hrs by SYTO-9 and PI staining based flow cytometry analysis (reference value: 96.0%); type: cell membranes; settings: dose 4.0 µg/ml
[3] = Toxicity in female KM mouse assessed as effect on kidney at 20 mg/kg, sc measured after 24 hrs by H and E staining based analysis; type: organism-based; settings: in vivo
[4] = Toxicity in female KM mouse assessed as effect on albumin at upto 20 mg/kg, sc measured after 24 hrs by biochemical test; type: organism-based; settings: in vivo
[5] = Toxicity in female KM mouse assessed as effect on spleen at 20 mg/kg, sc measured after 24 hrs by H and E staining based analysis; type: organism-based; settings: in vivo
Cell membrane [6] = assay: Disruption of cell membrane in methicillin-resistant Staphylococcus aureus clinical isolate 16 assessed as increase in blue fluorescence at 8 times MIC measured after 4 hrs by DAPI and PI staining based laser confocal microscopy based analysis; type: cell membranes
Staphylococcus aureus [7] = assay: Antibacterial activity against methicillin-resistant Staphylococcus aureus clinical isolate 16 measured after 18 hrs in presence of peptidoglycan by checkerboard broth dilution method; type: functional, organism-based
Cell membrane [8] = assay: Induction of cell membrane disruption in methicillin-resistant Staphylococcus aureus clinical isolate 16 assessed as dead cells (Q1 region) at 32 ug/ml measured after 2 hrs by SYTO-9 and PI staining based flow cytometry analysis (reference value: 0%); type: cell membranes; settings: dose 32.0 µg/ml
Staphylococcus aureus [9] = assay: Antibacterial activity against methicillin-resistant Staphylococcus aureus clinical isolate 16 measured after 18 hrs in presence of cardiolipin by checkerboard broth dilution method; type: functional, organism-based
[10] = Toxicity in female KM mouse assessed as effect on CREA at upto 20 mg/kg, sc measured after 24 hrs by biochemical test; type: organism-based; settings: in vivo
[11] = Toxicity in female KM mouse assessed as effect on histopathological abnormalities in lungs at 20 mg/kg, sc measured after 24 hrs by H and E staining based analysis; type: organism-based; settings: in vivo
Staphylococcus aureus [12] = assay: Antibacterial activity against methicillin-resistant Staphylococcus aureus clinical isolate 16 infected in female KM mouse skin abscess model assessed as reduction in infiltration of inflammatory cells in dermis at 10 mg/kg, sc measured after 24 hrs by H and E staining based analysis; type: functional, organism-based
[13] = Toxicity in female KM mouse skin abscess model infected with methicillin-resistant Staphylococcus aureus clinical isolate 16 assessed as histological abnormalities in liver at 5 to 10 mg/kg, sc measured after 24 hrs by H and E staining based analysis; type: organism-based; settings: in vivo, dose 5-10 mg/kg
Staphylococcus aureus [14] = assay: Antibacterial activity against methicillin-resistant Staphylococcus aureus clinical isolate 16 infected in female KM mouse skin abscess model assessed as reduction in infiltration of inflammatory cells in subcutaneous tissue at 10 mg/kg, sc measured after 24 hrs by H and E staining based analysis; type: functional, organism-based
Cell membrane [15] = assay: Induction of cell membrane disruption in methicillin-resistant Staphylococcus aureus clinical isolate 16 assessed as dead cells (Q1 region) at 64 ug/ml measured after 2 hrs by SYTO-9 and PI staining based flow cytometry analysis (reference value: 0%); type: cell membranes; settings: dose 64.0 µg/ml
[16] = Toxicity in female KM mouse assessed as effect on mean corpuscular volume at upto 20 mg/kg, sc measured after 24 hrs; type: organism-based; settings: in vivo
[17] = Toxicity in female KM mouse assessed as animal death at 80 mg/kg, sc measured after 24 hrs; type: organism-based; settings: in vivo
[18] = Toxicity in female KM mouse assessed as adverse effect on back skin at 5 to 20 mg/kg, sc measured after 24 hrs; type: organism-based; settings: in vivo, dose 5-20 mg/kg
Staphylococcus aureus [19] = assay: Antibacterial activity against methicillin-resistant Staphylococcus aureus clinical isolate 21 measured after 18 hrs by CLSI based broth microdilution method; type: functional
Cell membrane [20] = assay: Disruption of cell membrane in methicillin-resistant Staphylococcus aureus clinical isolate 16 assessed as increase in protein leakage incubated for 4 hrs by microspectrophotometric analysis; type: cell membranes; settings: dose <= 8.0 µg/ml
[21] = Toxicity in female KM mouse assessed as effect on histopathological abnormalities in kidney at 20 mg/kg, sc measured after 24 hrs by H and E staining based analysis; type: organism-based; settings: in vivo
[22] = Toxicity in female KM mouse assessed as effect on histopathological abnormalities in back skin at 20 mg/kg, sc measured after 24 hrs by H and E staining based analysis; type: organism-based; settings: in vivo
Staphylococcus aureus [23] = assay: Antibacterial activity against Staphylococcus aureus ATCC 29213 at sub-MIC concentration measured after 20 passages by CLSI micro broth dilution method; type: functional, organism-based
Staphylococcus aureus [24] = assay: Antibacterial activity against methicillin-resistant Staphylococcus aureus clinical isolate 16 infected in female KM mouse skin abscess model assessed as reduction in number of MRSA cells at 5 to 10 mg/kg, sc measured after 24 hrs; type: functional, organism-based; settings: dose 5-10 mg/kg
[25] = Toxicity in female KM mouse skin abscess model infected with methicillin-resistant Staphylococcus aureus clinical isolate 16 assessed as histological abnormalities in spleen at 5 to 10 mg/kg, sc measured after 24 hrs by H and E staining based analysis; type: organism-based; settings: in vivo, dose 5-10 mg/kg
Cell membrane [26] = assay: Induction of cell membrane disruption in methicillin-resistant Staphylococcus aureus clinical isolate 16 assessed as dead cells (Q1 region) at 8 ug/ml measured after 2 hrs by SYTO-9 and PI staining based flow cytometry analysis (reference value: 0%); type: cell membranes; settings: dose 8.0 µg/ml
Staphylococcus aureus [27] = assay: Antibacterial activity against methicillin-resistant Staphylococcus aureus clinical isolate 14 measured after 18 hrs by CLSI based broth microdilution method; type: functional
Staphylococcus aureus [28] = assay: Antibacterial activity against methicillin-resistant Staphylococcus aureus clinical isolate 16 measured after 18 hrs in presence of phosphatidylethanolamine by checkerboard broth dilution method; type: functional, organism-based
Staphylococcus aureus [29] = assay: Antibacterial activity against methicillin-resistant Staphylococcus aureus clinical isolate 16 infected in female KM mouse skin abscess model assessed as reduction in bacterial load at 10 mg/kg, sc measured after 24 hrs relative to control; type: functional; parameters: scale not given: the % may be the effect or the level left
Staphylococcus aureus [30] = assay: Antibacterial activity against methicillin-resistant Staphylococcus aureus clinical isolate 16 infected in female KM mouse skin abscess model assessed as effect on abscess in intradermal tissue at 5 mg/kg, sc measured after 24 hrs; type: functional, organism-based
Cell membrane [31] = assay: Induction of cytoplasmic membrane permeabilization in methicillin-resistant Staphylococcus aureus clinical isolate 16 assessed as increase in fluorescence intensity at 8 to 32 time MIC measured for 10 mins by SYTOX green dye based fluorescence analysis; type: cell membranes
[32] = Toxicity in female KM mouse assessed as adverse reaction in skin at 20 mg/kg, sc measured after 24 hrs; type: organism-based; settings: in vivo
Cell membrane [33] = assay: Induction of cell membrane disruption in methicillin-resistant Staphylococcus aureus clinical isolate 16 assessed as intact cells (Q3 region) at 32 ug/ml measured after 2 hrs by SYTO-9 and PI staining based flow cytometry analysis (reference value: 96.0%); type: cell membranes; settings: dose 32.0 µg/ml
[34] = Stability in 50% sheep blood plasma measured after 6 hrs; type: ADME, cell-free, Ovis aries
Staphylococcus aureus [35] = assay: Antibacterial activity against methicillin-resistant Staphylococcus aureus clinical isolate 20 measured after 18 hrs by CLSI based broth microdilution method; type: functional

## CCCCCCNC(=O)C[N+](C)(C)CCCCCOc1ccc2ccc(=O)oc2c1CC=C(C)C.[Br-]
Cell membrane [1]
  Activity: Active
Cell membrane [2]
  Activity: 76.9%
[3]
  Activity: Non-Toxic
[4]
  Activity: Non-Toxic
[5]
  Activity: Non-Toxic
Cell membrane [6]
  Activity: Active
Staphylococcus aureus [7]
  Activity: Active
Cell membrane [8]
  Activity: 61.7%
Staphylococcus aureus [9]
  Activity: Active
[10]
  Activity: Non-Toxic
[11]
  Activity: Non-Toxic
Staphylococcus aureus [12]
  Activity: Active
[13]
  Activity: Non-Toxic
Staphylococcus aureus [14]
  Activity: Active
Cell membrane [15]
  Activity: 96.2%
[16]
  Activity: Non-Toxic
[17]
  Activity: Non-Toxic
[18]
  Activity: Non-Toxic
Staphylococcus aureus [19]
  MIC: 2 µg/mL
Cell membrane [20]
  Activity: Dose-Dependent Effect
[21]
  Activity: Non-Toxic
[22]
  Activity: Non-Toxic
Staphylococcus aureus [23]
  Activity: inactive
Staphylococcus aureus [24]
  Activity: Active
[25]
  Activity: Non-Toxic
Cell membrane [26]
  Activity: 0.34%
Staphylococcus aureus [27]
  MIC: 1 µg/mL
Staphylococcus aureus [28]
  Activity: Active
Staphylococcus aureus [29]
  Activity: 99.998%
Staphylococcus aureus [30]
  Activity: Active
Cell membrane [31]
  Activity: Active
[32]
  Activity: Non-Toxic
Cell membrane [33]
  Activity: 0.05%
[34]
  Stability: Stable
Staphylococcus aureus [35]
  MIC: 2 µg/mL
